Data taken from EP4806904A1, “POLYPEPTIDE AND USE THEREOF” (Sichuan Gooddoctor Panxi Pharmaceutical Co. Ltd, priority 2023, dated 2026).

Assays:
[1] = tested on: primary neural stem cells (NSCs); assay: Proliferation of primary neural stem cells, BrdU incorporation (Example 2.1); type: cell-based, SD rats; settings: 0.02, 0.1, 0.5 mg/mL, 48 h, vs control group
Description: (§1) This part of the experiment requires feeding male and female rats in advance, then extracting hippocampal neural stem cells from newborn SD rats within 24 h of birth, culturing them to P3 for identification, and then using them for experiments.
(§2) Extraction and culture of primary neural stem cells (NSCs): Hippocampal neural stem cells were extracted from neonatal SD mice 24 h after birth. The procedure is as follows: first, the neonatal rats were disinfected by soaking in 75% ethanol, then transferred to a biological safety cabinet for manipulation under aseptic conditions. After the entire brain was removed from the neonatal mouse, it was immediately placed in cold D-Hanks solution to remove non-neural tissue. Under a dissecting microscope, the meninges were carefully removed and the hippocampal structures on both sides were separated. […]
Medium-sized neurospheres formed from P3-P4 generations were centrifuged at 800 rpm for 5 min, the supernatant was discarded, a small amount of complete medium was added and pipetted to form a single-cell suspension, the cells were resuspended, counted, and seeded at 1.0 x 10^5 cells/mL into 24-well plates coated with 25 µg/mL PLL. […] Immunofluorescence staining was performed 4 h later, and the cells were then observed and photographed under a fluorescence microscope. The BrdU-positive cell rate was statistically analyzed.

[2] = tested on: PSD95 and SYP; assay: Western blot of PSD95 and SYP in hippocampus and cortex; type: in vivo, SD rats; settings: treatment for 14 days, vs Vehicle group, P<0.05
Description: (§3) Experimental animals, model establishment, grouping and drug administration are the same as in Example 5.
(§4) The cortical index was calculated for each group of rats 14 days after ischemia-reperfusion injury. tMCAO rats were treated with the polypeptide compound 1 of the invention for 14 days, and the expression of PSD95 and SYP was detected by Western blot.

[3] = tested on: tMCAO rats; assay: Cortical index 14 days after ischemia-reperfusion injury; type: in vivo, SD rats; settings: 10 mg/kg, tail vein, treatment for 14 days, P<0.01
Description: as §3, §4

[4] = tested on: primary neural stem cells (NSCs); assay: Differentiation of primary neural stem cells, MAP-2/GFAP immunofluorescence (Example 2.2); type: cell-based, SD rats; settings: 0.02, 0.1, 0.5 mg/mL, 4 days, vs control group
Description: as §1
as §2, with “separated. The tissue was mechanically broken into flocculent pieces with a scalpel, pipetted, and the tissue sample was transferred to a 15 mL centrifuge tube and centrifuged at 800 rpm for 5 min.” for “separated.”
Medium-sized neurospheres cultured at P3-P4 were collected, centrifuged at 800 rpm for 5 min, and the supernatant was discarded. […] Subsequently, the images were observed and collected under a fluorescence microscope, and the mean fluorescence intensities of MAP-2 and GFAP were statistically analyzed respectively.

[5] = tested on: primary neural stem cells (NSCs); assay: Differentiation of primary neural stem cells, βIII-tubulin fluorescence and Neurite Outgrowth Assay; type: cell-based, SD rats; settings: 100 µg/mL
Summary of the method: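 Hippocampal NSCs from newborn SD rats, passage 3, seeded at 5×10^4 cells/mL in 2% FBS DMEM/F12 differentiation medium. Polypeptide at final 100 µg/mL (NGF 50 ng/mL positive control) for 4 days. βIII-tubulin immunofluorescence intensity and neurite outgrowth quantified by high-content imaging.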

[6] = tested on: Brain microvascular endothelial cells (BMECs) and brain microvascular smooth muscle cells (BMVSMCs); assay: In vitro angiogenesis assay, BMEC/BMVSMC co-culture on matrigel; type: cell-based, mouse; settings: 0.1 mg/L, 48 h
Summary of the method: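 Mouse BMVSMCs (5×10^3) and BMECs (1×10^3) per well, passages 3-6, co-cultured on matrigel at 37 °C, 5% CO2. After medium change on day 4, polypeptide 0.1 mg/L or VEGFA 10/15/20 ng/L for 48 h; Hoechst/Calcein AM stained, imaged by high-content screening and angiogenesis quantified.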

[7] = 4 days, significance vs blank control group
[8] = significance vs blank control group

H-ALPAPGTL-OH [Compound 1, H-Ala-Leu-Pro-Ala-Pro-Gly-Thr-Leu-OH]
percentage of BrdU-positive cells [1]: significantly increased
expression of PSD95 [2]: significantly increased
expression of SYP [2]: significantly increased
cortical index [3]: significantly increased
mean fluorescence intensity of GFAP [4]: significantly elevated
mean fluorescence intensity of MAP-2 [4]: significantly elevated
neurite outgrowth (total neurite length, maximum neurite length, neurite terminals, neurite initiation points) ([5]; 4 days, Neurite Outgrowth Assay, in words): promote neurite outgrowth
Longest neurite length [5, 7]: *** (***p < 0.001)
Neurite initiation points (branches) [5, 7]: *** (***p < 0.001)
Number of neurite terminals [5, 7]: *** (***p < 0.001)
Total neurite length [5, 7]: ** (**p < 0.01)
mean fluorescence intensity of the neuronal marker protein βIII-tubulin ([5]; 4 days, vs blank control group, in words): significant increase
differentiation of NSCs into neuronal cells ([5]; conclusion based on the results of the two analytical methods): promote the differentiation of NSCs into neuronal cells with stable effects
Average fluorescence intensity ([5]; βIII-tubulin, 4 days, significance vs blank control group): ** (**p < 0.01)
Branch length [6, 8]: ** (**p < 0.01)
Cell count [6, 8]: *** (***p < 0.001)
Number of intersections [6, 8]: * (*p < 0.05)
angiogenesis-promoting effects ([6]; vs normal group, in words): exhibited angiogenesis-promoting effects
